{
  "source": "patent US20260041695A1",
  "about": "“COMBINATION THERAPIES FOR TREATMENT OF BREAST CANCER” (Genentech, Inc., priority 2019, published 2026)",
  "key": {"[1]": {"experiment": "Phase I/Ib GDC-0077 + fulvestrant: pharmacokinetics and food effect", "format": "in vivo, human", "experimental": "Safety (NCI-CTCAE v4), PK, and preliminary antitumor activity (clinical benefit rate [CBR]: RECIST v1.1 stable disease for ≥24 weeks, partial response [PR], or complete response) were assessed. The effect of a standard high-fat meal on the PK of G was evaluated after a single dose and at steady state. Relevant signaling and pharmacodynamic (PD) biomarkers were assessed using circulating tumor (ct) DNA samples."}, "PI3K pathway [2]": {"tested_on": "PI3K pathway", "experiment": "Phase Ib GDC-0077 + letrozole with or without palbociclib: pharmacodynamics", "format": "in vivo, human", "experimental": "Pharmacodynamic activity was assessed pre- and on-study (after 2 weeks of daily GDC-0077 treatment), in tumor biopsies via immunohistochemistry (IHC), and in ctDNA samples (by FoundationACT)."}, "[3]": {"experiment": "Phase I single-agent GDC-0077: pharmacokinetics", "format": "in vivo, human", "experimental": "To evaluate single dose pharmacokinetics (PK), frequent blood sampling was performed up to 48 hours after the initial dose at Cycle 1 Day 1. Once daily dosing was initiated from Cycle 1 Day 8 and blood sampling to evaluate PK at steady state was conducted at Cycle 1 Day 15."}, "[4]": {"tested_on": "MCF-7 (PIK3CA mutant E545K, ER+) breast carcinoma xenograft", "experiment": "MCF-7 xenograft efficacy", "details": "for % TGI: G 25 mg/kg oral QD 21 days, P 50 mg/kg oral QD 21 days, F 200 mg/kg s.c. weekly 3 weeks, groups of 12 animals; for CR / PR: number of animals, groups of 12, doses as for % TGI", "description": "Implant 0.36 mg estradiol pellets, s.c. between the scapulae, 1-3 days prior to cell implantation.\nSet up CR female NCr nu/nu mice with 1×10^7 MCF7 tumor cells in 0% Matrigel sc in mammary fat pad.\nPerform a pair match when tumors reach an average size of 180-220 mm^3, and begin treatment.\nCaliper Measurement: biwk to end\nEndpoint TGD. Animals are monitored individually. The endpoint of the experiment is a tumor volume of 2000 mm^3 or 45 days, whichever comes first. Responders can be followed longer. When the endpoint is reached, the animals are euthanized per SOP."}, "[5]": {"molecular_target": "Class I PI3K alpha isoform (Homo sapiens, UniProt P42336)", "sequence (P42336 whole entry, canonical isoform)": "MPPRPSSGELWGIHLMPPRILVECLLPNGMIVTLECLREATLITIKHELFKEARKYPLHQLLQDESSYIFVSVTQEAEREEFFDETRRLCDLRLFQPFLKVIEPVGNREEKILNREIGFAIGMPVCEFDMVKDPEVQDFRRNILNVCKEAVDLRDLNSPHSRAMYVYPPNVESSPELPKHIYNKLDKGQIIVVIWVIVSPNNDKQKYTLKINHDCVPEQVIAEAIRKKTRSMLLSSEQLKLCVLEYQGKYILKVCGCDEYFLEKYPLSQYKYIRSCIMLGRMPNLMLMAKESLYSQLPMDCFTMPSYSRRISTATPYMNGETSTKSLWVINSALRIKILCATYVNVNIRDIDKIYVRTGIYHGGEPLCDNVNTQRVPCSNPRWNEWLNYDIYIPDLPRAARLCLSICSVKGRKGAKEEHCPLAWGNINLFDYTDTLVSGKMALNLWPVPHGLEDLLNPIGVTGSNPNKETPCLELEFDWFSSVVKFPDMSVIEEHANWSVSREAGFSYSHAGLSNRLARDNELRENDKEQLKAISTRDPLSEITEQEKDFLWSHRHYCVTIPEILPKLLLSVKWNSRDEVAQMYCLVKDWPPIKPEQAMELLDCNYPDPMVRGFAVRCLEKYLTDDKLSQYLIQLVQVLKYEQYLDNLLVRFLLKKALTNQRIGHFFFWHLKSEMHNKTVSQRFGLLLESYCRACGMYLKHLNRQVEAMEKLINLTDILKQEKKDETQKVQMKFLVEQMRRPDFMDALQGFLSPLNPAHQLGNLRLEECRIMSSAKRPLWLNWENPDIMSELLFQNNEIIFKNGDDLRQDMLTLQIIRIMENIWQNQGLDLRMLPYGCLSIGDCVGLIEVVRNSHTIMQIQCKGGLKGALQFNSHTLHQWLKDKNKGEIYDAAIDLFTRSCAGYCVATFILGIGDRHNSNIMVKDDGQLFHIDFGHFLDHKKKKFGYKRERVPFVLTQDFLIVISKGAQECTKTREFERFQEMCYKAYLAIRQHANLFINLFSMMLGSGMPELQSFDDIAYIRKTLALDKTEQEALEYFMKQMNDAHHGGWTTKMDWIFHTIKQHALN", "sequence (P27986 whole entry partner, canonical isoform)": "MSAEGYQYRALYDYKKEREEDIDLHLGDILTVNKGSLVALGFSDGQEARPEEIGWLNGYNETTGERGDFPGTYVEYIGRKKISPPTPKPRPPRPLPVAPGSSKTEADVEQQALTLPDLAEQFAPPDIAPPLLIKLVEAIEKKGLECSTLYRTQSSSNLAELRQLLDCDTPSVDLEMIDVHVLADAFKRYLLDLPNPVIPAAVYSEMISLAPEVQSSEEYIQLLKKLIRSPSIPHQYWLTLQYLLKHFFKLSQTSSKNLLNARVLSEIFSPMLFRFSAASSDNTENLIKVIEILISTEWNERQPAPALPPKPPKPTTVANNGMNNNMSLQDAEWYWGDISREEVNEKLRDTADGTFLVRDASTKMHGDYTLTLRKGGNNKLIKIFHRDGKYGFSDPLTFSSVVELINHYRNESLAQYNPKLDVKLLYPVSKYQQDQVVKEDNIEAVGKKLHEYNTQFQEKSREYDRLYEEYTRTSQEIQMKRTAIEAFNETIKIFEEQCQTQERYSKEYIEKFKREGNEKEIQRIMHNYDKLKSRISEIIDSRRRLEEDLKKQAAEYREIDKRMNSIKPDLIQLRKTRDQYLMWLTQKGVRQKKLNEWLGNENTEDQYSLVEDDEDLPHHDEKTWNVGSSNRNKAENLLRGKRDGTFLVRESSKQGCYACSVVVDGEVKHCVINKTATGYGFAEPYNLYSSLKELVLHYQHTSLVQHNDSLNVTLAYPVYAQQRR", "details": "versus PI3K alpha; cited from earlier work"}, "PI3K pathway [6]": {"tested_on": "PI3K pathway", "experiment": "Phase I single-agent GDC-0077: pharmacodynamics", "format": "in vivo, human", "experimental": "Pharmacodynamic activity was assessed pre- and on-study (after 2 weeks of daily GDC-0077 treatment) with FDG-PET scans, in tumor biopsies via immunohistochemistry (IHC), and in ctDNA samples (by FoundationACT)."}, "[7]": {"experiment": "Phase Ib GDC-0077 + letrozole with or without palbociclib: pharmacokinetics", "format": "in vivo, human"}, "[8]": {"experiment": "Phase I/Ib inavolisib + palbociclib + fulvestrant: pharmacokinetics", "set-up": "species or system human", "details": "in vivo"}, "[9]": {"tested_on": "tumor cells bearing mutant PI3K", "details": "cited from earlier work"}, "[10]": {"tested_on": "locally advanced or metastatic PIK3CA-mutant solid tumors", "experiment": "Phase I single-agent GDC-0077: clinical activity (RECIST v1.1)", "format": "in vivo, human", "experimental": "Tumor assessments were performed by RECIST v1.1 at screening and every 8 weeks to assess preliminary anti-tumor activity."}, "[11]": {"details": "cited from earlier work"}, "[12]": {"details": "19 patients with measurable disease"}, "[13]": {"details": "in combination with fulvestrant"}},
  "note": "Read-outs that look alike come from different tables or passages of the source.",
  "data": [
    {"smiles": "C[C@H](Nc1ccc2c(c1)OCCn1cc(N3C(=O)OC[C@H]3C(F)F)nc1-2)C(N)=O", "note": "[GDC-0077, (S)-2-((2-((S)-4-(difluoromethyl)-2-oxooxazolidin-3-yl)-5,6-dihydrobenzo[f]imidazo[1,2-d][1,4]oxazepin-9-yl)amino)propanamide]", "values": [
      {"measurement": "PK of GDC-0077 in combination with fulvestrant versus single-agent PK", "setting": "[1]; in vivo", "value": "similar"},
      {"measurement": "GDC-0077 exposures (Cmax and AUC0-24) in fasted or fed states", "setting": "[1]; standard high-fat meal, single dose and steady state", "value": "Comparable"},
      {"measurement": "colitis", "setting": "9 patients treated ≥5 months", "value": "No colitis"},
      {"measurement": "MTD", "setting": "QD, single agent", "value": 9, "unit": "mg"},
      {"measurement": "Dose-limiting toxicities", "setting": "at 12 mg (1 Grade 4 hyperglycemia, 1 Grade 3 fatigue)", "value": 2, "unit": "patients"},
      {"measurement": "treatment related high-grade gastrointestinal toxicities", "setting": "treatment-related diarrhea events all Grade 1-2", "value": "No treatment related high-grade gastrointestinal toxicities"},
      {"measurement": "PI3K pathway effectors (pAKT, pS6) in paired tumor biopsies", "setting": "PI3K pathway [2]; GDC-0077 with letrozole with or without palbociclib", "value": "Robust PD downregulation"},
      {"measurement": "PIK3CA mutant allele frequency by ctDNA", "setting": "PI3K pathway [2]; between Cycle 1 Day 1 and Cycle 1 Day 15, majority of available samples", "value": "decreased"},
      {"measurement": "PK variability (% CV) for Cmax and AUC0-24", "setting": "[3]; after a single dose and at steady state at MTD (9 mg)", "value": "~20", "unit": "%"},
      {"measurement": "half-life", "setting": "[3]; human, plasma, oral, following a single dose, read-out: Mean half-life (t1/2) (converted)", "value": 18.1, "unit": "h"},
      {"measurement": "Plasma exposure versus dose", "setting": "[3]; single and multiple doses", "value": "increased proportionally"},
      {"measurement": "% TGI", "setting": "[4]", "value": 35, "unit": "%"},
      {"measurement": "CR", "setting": "[4]", "value": 0},
      {"measurement": "PR", "setting": "[4]", "value": 0},
      {"measurement": "fold less potent biochemical inhibition for other Class I PI3K beta, delta, and gamma isoforms", "setting": "[5]", "value": "> 300", "unit": "fold"},
      {"measurement": "FDG-PET scans", "setting": "PI3K pathway [6]; baseline and after 2 weeks of daily GDC-0077", "value": "metabolic responses at all dose levels evaluated"},
      {"measurement": "PI3K pathway activity in paired tumor biopsies by IHC for phosphoproteins", "setting": "PI3K pathway [6]; in vivo", "value": "Decreased"},
      {"measurement": "ctDNA PIK3CA mutant allele frequency", "setting": "PI3K pathway [6]; over time, majority of specimens", "value": "Decreased"},
      {"measurement": "plasma exposure of GDC-0077, single agent versus combination arms", "setting": "[7]; Preliminary results", "value": "similar"},
      {"measurement": "drug-drug interaction with concomitant medications (palbociclib and letrozole)", "setting": "[7]; in vivo", "value": "no drug-drug interaction"},
      {"measurement": "drug-drug interactions with concomitant therapies (palbociclib and fulvestrant [and metformin])", "setting": "[8]", "value": "no drug-drug interactions"},
      {"measurement": "pharmacokinetics of inavolisib in combination with palbociclib+fulvestrant versus single-agent inavolisib", "setting": "[8]", "value": "similar"},
      {"measurement": "potency in tumor cells bearing mutant PI3K over wild type (WT) PI3K cells", "setting": "[9]", "value": "increased potency"},
      {"measurement": "best overall response rate", "setting": "[10]; [12]", "value": 26, "unit": "%"},
      {"measurement": "confirmed overall response rate", "setting": "[10]; [12]", "value": 21, "unit": "%"},
      {"measurement": "clinical benefit rate", "setting": "[10]; 20 patients", "value": 45, "unit": "%"},
      {"measurement": "clinical benefit", "setting": "[10]; of 20 patients", "value": 9, "unit": "patients"},
      {"measurement": "best overall response rate", "setting": "[10]; overall, 20 patients", "value": 25, "unit": "%"},
      {"measurement": "confirmed PR", "setting": "[10]; overall, 20 patients", "value": 4, "unit": "patients"},
      {"measurement": "confirmed overall response rate", "setting": "[10]; overall, 20 patients", "value": 20, "unit": "%"},
      {"measurement": "partial response (PR)", "setting": "[10]; overall, 20 patients", "value": 5, "unit": "patients"},
      {"measurement": "overall response rate", "setting": "[10]; patients with tumors harboring PIK3CA mutations (conclusions)", "value": 210, "unit": "%"}
    ]},
    {"smiles": "CC(=O)c1c(C)c2cnc(Nc3ccc(N4CCNCC4)cn3)nc2n(C2CCCC2)c1=O", "note": "[palbociclib, 6-acetyl-8-cyclopentyl-5-methyl-2-(5-(piperazin-1-yl)pyridin-2-ylamino)pyrido[2,3-d]pyrimidin-7(8H)-one]", "values": [
      {"measurement": "% TGI", "setting": "[4]", "value": 45, "unit": "%"},
      {"measurement": "CR", "setting": "[4]", "value": 0},
      {"measurement": "PR", "setting": "[4]", "value": 0},
      {"measurement": "cycle delays", "setting": "[11]; [13]", "value": 36, "unit": "%"},
      {"measurement": "dose holds", "setting": "[11]; [13]", "value": 54, "unit": "%"},
      {"measurement": "patients required ≥1 dose reduction of palbociclib", "setting": "[11]; [13]", "value": 34, "unit": "%"},
      {"measurement": "cycle delays", "setting": "[11]; in combination with letrozole", "value": 68, "unit": "%"},
      {"measurement": "dose holds", "setting": "[11]; in combination with letrozole", "value": 70, "unit": "%"},
      {"measurement": "patients required ≥1 dose reduction of palbociclib", "setting": "[11]; in combination with letrozole", "value": 36, "unit": "%"},
      {"measurement": "pharmacokinetics in combination with GDC-0077 versus single-agent PK reported in literature", "setting": "[7]; in vivo", "value": "comparable"}
    ]},
    {"smiles": "C[C@]12CC[C@@H]3c4ccc(O)cc4C[C@@H](CCCCCCCCC[S+]([O-])CCCC(F)(F)C(F)(F)F)[C@H]3[C@@H]1CC[C@@H]2O", "note": "(stereo partly drawn) [fulvestrant, (7α,17β)-7-{9-[(4,4,5,5,5-pentafluoropentyl)sulfinyl]nonyl}estra-1,3,5(10)-triene-3,17-diol]", "values": [
      {"measurement": "% TGI", "setting": "[4]", "value": 52, "unit": "%"},
      {"measurement": "CR", "setting": "[4]", "value": 0},
      {"measurement": "PR", "setting": "[4]", "value": 0}
    ]},
    {"smiles": "N#Cc1ccc(C(c2ccc(C#N)cc2)n2cncn2)cc1", "note": "[letrozole, 4,4′-((1H-1,2,4-triazol-1-yl)methylene)dibenzonitrile, reference compound]", "values": [
      {"measurement": "pharmacokinetics in combination with GDC-0077 versus single-agent PK reported in literature", "setting": "[7]; in vivo", "value": "comparable"}
    ]}
  ]
}
